Assay results: patent EP0583821A1, “Atriopeptins, guanylate cyclase activators, and phosphodiesterase inhibitors as treatment for glaucoma, hydrocephalus and cerebral edema (cranial fluid volume dysfunction)” (THE GENERAL HOSPITAL CORPORATION, priority 1987, dated 1988)

Experiments:
[1] = tested on: guanylate cyclase; test: Guanylate cyclase in membrane fractions of cerebral cortex; assay type: biochemical; conditions: rabbit or pig cerebral cortex membrane fractions
Description: (§1) The effect of rANP on membrane-bound guanylate cyclase and adenylate cyclase activity in various brain-barrier tissues and tissue fractions from rabbit was compared with its activity in cerebrum and cerebellum. Guanylate cyclase was measured as the rate of cyclic GMP formation by modifications of the technique of Waldman et al., supra, incorporated herein by reference. Briefly, tissues were homogenized (10 mg wet weight per milliliter) in 50 mM tris-HCl, pH 8.0, 1 mM EDTA, 1 mM dithiothreitol, and 250 mM sucrose and centrifuged at 100,000g to obtain a P1 pellet. Reaction tubes contained (in 0.3 ml), 50 mM tris, pH 7.6, 6 mM MnCl₂, 0.5 mM 3-isobutyl, 1-methylxanthine (IBMX), 10 mM theophylline, 3 mM GTP, hormone (in 0.03 ml containing 2.5 mM ascorbic acid and 0.1% bovine serum albumin), and 0.06 ml of P1 fraction (40 to 60 ug of protein). The reaction (4 minutes at 30°C) was started by addition of GTP and terminated by addition of 0.3 ml of 150 mM sodium acetate (pH 4.0) and boiling for 3 minutes. Cyclic GMP formed was subsequently measured by radioimmunoassay as described in example 6, infra. Under these conditions, guanylate cyclase activity was linear with time and tissue concentration. Adenylate cyclase activity in P1 fractions was measured according to the method described by Nathanson, et al., Science; 204:843 (1979); Mol. Pharmacol. 18:199 (1980), see Figure 1C . […] Neurosci. […]

[2] = tested on: adenylate cyclase; test: Adenylate cyclase activity in P1 fractions of whole choroid; assay type: biochemical, rabbit; conditions: rANP at high concentrations
Description: as §1

[3] = tested on: choroid epithelial cells; test: Intracellular cyclic GMP content of isolated choroid epithelial cells; assay type: cell-based, rabbit; conditions: 5 minutes incubation; 1 uM rANP; PDE inhibitors theophylline (10 mM) and IBMX (0.5 mM)
Description: The effect of rANP on membrane-bound guanylate cyclase and adenylate cyclase activity in various brain-barrier tissues and tissue fractions from rabbit was compared with its activity in cerebrum and cerebellum. Guanylate cyclase was measured as the rate of cyclic GMP formation by modifications of the technique of Waldman et al., supra, incorporated herein by reference. Briefly, tissues were homogenized (10 mg wet weight per milliliter) in 50 mM tris-HCl, pH 8.0, 1 mM EDTA, 1 mM dithiothreitol, and 250 mM sucrose and centrifuged at 100,000g to obtain a P1 pellet. […] Cyclic GMP formed was subsequently measured by radioimmunoassay as described in example 6, infra. […] Adenylate cyclase activity in P1 fractions was measured according to the method described by Nathanson, et al., Science; 204:843 (1979); Mol. Pharmacol. 18:199 (1980), see Figure 1C . […]
Purified secretory epithelial cells were isolated and maintained in tissue culture medium in the absence of any hormones. […] More diffuse staining was found only in epithelium and not in vascular or stromal components of choroid epithelial cells as determined by fluorescein optics. […]
For one experiment, the mean ± range is shown for duplicate determinations, each assayed in triplicate for cyclic GMP content. […] After the cells were incubated for 5 minutes, they were killed and their cyclic GMP content was determined. […]

[4] = tested on: rabbits; test: Peripheral blood pressure after intravenous injection; assay type: in vivo, rabbit; conditions: intravenous injection of similar doses
[5] = tested on: guanylate cyclase; test: Ciliary process guanylate cyclase activity (Tables 2 and 3); assay type: biochemical

Ser-Leu-Arg-Arg-atriopeptin III (APIII) [rANP 1-28]
stimulation of guanylate cyclase activity [1]: no stimulation | effect on adenylate cyclase activity [2]: small inhibition | increase in cyclic GMP content [3]: more than an eightfold increase | peripheral blood pressure [4]: no change | CILIARY PROCESS GUANYLATE CYCLASE ACTIVITY (Percent Increase) ([5]; Table 2, 10⁻⁶M): 60 ± 27 Percent Increase | CILIARY PROCESS GUANYLATE CYCLASE ACTIVITY (Percent Increase) ([5]; Table 3, concentration not given): 74 Percent Increase
